# In patent publication US20250353891A1 (MEDIMMUNE LIMITED, priority 2022, published 2025):
# pEC50: −log10 of the molar value. Starred links: 1 amine or outer side, 2 acyl side, 3 side chain; linkers in the order of their positions; H or OH if unused. Non-standard residues stand in square brackets, D forms with d. Residues, ends and D or L forms follow the SMILES beside them. Groups on a side chain read outwards from the residue. *: point of attachment. C20 diacid = O=C(O)CCCCCCCCCCCCCCCCCCC(=O)*; C18 diacid = O=C(O)CCCCCCCCCCCCCCCCC(=O)*; γGlu = O=C(O)[C@H](CCC(=O)[*:2])N[*:1]; αMeF = C[C@](N)(Cc1ccccc1)C(=O)O; AEEA = NCCOCCOCC(=O)O; Aib = CC(C)(N)C(=O)O
# Assays:
# [1] = molecular target: human glucagon receptor (hGCGR) (Homo sapiens, UniProt P47871); assay: cAMP production (HTRF) in CHO cells expressing hGCGR; format: cell-based; parameters: expressed in transfected cells; conditions: Table 6, peptides modified at position 17; cAMP in CHO hGCGR cells; geometric mean; read-out: hGluc-R EC50
# human glucagon receptor (hGCGR), sequence (P47871 26-477): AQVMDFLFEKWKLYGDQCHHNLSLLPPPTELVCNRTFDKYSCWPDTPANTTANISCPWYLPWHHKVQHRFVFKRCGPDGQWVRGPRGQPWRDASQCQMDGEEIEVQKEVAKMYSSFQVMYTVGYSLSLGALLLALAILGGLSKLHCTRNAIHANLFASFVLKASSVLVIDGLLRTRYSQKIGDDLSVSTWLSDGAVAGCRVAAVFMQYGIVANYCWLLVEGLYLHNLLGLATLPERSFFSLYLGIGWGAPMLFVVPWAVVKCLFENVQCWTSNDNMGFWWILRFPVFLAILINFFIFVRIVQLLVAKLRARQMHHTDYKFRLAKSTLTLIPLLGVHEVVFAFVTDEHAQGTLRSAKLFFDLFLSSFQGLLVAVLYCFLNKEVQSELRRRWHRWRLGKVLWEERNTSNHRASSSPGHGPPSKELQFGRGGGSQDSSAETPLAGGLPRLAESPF
# Procedure, shortened: (§1)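 Read-out: HTRF cAMP (anti-cAMP cryptate donor, cAMP-d2 acceptor in conjugate/lysis buffer), converted to % Delta F and fitted by 4-parameter logistic for EC50. Cell densities were 1×10^5 cells/mL (hGLP-1R) or 2×10^5 cells/mL (hGCGR). Stimulation lasted 30 min at room temperature.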
# [2] = molecular target: human GLP-1 receptor (hGLP-1R) (Homo sapiens, UniProt P43220); assay: cAMP production (HTRF) in CHO cells expressing hGLP-1R; format: cell-based; parameters: expressed in transfected cells; conditions: for pEC50: Table 6, peptides modified at position 17, cAMP in CHO hGLP-1R cells, geometric mean, read-out: hGLP-1R EC50; for % Relative Potency Ratio: Table 6, % GLP-1R activity relative to GLP-1 / % GlucR activity relative to glucagon
# human GLP-1 receptor (hGLP-1R), sequence (P43220 24-463): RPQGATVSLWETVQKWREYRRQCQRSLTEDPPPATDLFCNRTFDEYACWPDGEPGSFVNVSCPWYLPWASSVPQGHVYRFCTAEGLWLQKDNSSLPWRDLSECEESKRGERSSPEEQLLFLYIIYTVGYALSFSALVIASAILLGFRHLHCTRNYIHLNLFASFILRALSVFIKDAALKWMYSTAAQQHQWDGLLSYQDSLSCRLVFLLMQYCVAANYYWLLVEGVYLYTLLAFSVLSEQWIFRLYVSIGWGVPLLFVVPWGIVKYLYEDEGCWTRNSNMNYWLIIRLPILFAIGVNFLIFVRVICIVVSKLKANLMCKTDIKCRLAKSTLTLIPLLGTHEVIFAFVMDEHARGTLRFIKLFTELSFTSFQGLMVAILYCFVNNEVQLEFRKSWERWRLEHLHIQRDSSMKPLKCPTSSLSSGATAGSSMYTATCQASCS
# Procedure, shortened: as §1
SMILES,pEC50 [1],pEC50 [2],% Relative Potency Ratio [2]
CC(C)C[C@H](NC(=O)[C@H](Cc1c[nH]c2ccccc12)NC(=O)[C@H](CCCNC(=N)N)NC(=O)[C@@H](NC(=O)[C@H](Cc1ccccc1)NC(=O)[C@H](CC(=O)O)NC(=O)[C@H](CCC(N)=O)NC(=O)[C@H](C)NC(=O)[C@H](CCCNC(=N)N)NC(=O)[C@H](CCCCNC(=O)COCCOCCNC(=O)COCCOCCNC(=O)CC[C@H](NC(=O)CCCCCCCCCCCCCCCCCCC(=O)O)C(=O)O)NC(=O)[C@H](CO)NC(=O)[C@H](CCC(=O)O)NC(=O)[C@H](CC(C)C)NC(=O)[C@](C)(Cc1ccccc1)NC(=O)[C@H](CCCCN)NC(=O)[C@H](CO)NC(=O)[C@@H](NC(=O)[C@H](CC(=O)O)NC(=O)[C@H](CO)NC(=O)[C@@H](NC(=O)[C@H](Cc1ccccc1)NC(=O)[C@@H](NC(=O)CNC(=O)[C@H](CCC(N)=O)NC(=O)C(C)(C)NC(=O)[C@@H](N)Cc1c[nH]cn1)[C@@H](C)O)[C@@H](C)O)C(C)C)C(C)C)C(=O)N[C@@H](CCC(=O)O)C(=O)N[C@@H](C)C(=O)NC(C)(C)C(=O)NCC(=O)O [Peptide 416] (H-H[Aib]QGTFTSDVSK[αMeF]LESK([AEEA-AEEA-γGlu-C20 diacid])RAQDFVRWLEA[Aib]G-OH; N-terminus assumed),9.24,10.17,17.0
CC(C)C[C@H](NC(=O)[C@H](Cc1c[nH]c2ccccc12)NC(=O)[C@H](C)NC(=O)[C@@H](NC(=O)[C@H](Cc1ccccc1)NC(=O)[C@H](CC(=O)O)NC(=O)[C@H](CCC(N)=O)NC(=O)[C@H](C)NC(=O)[C@H](CCCNC(=N)N)NC(=O)[C@H](CCCCNC(=O)COCCOCCNC(=O)COCCOCCNC(=O)CC[C@H](NC(=O)CC[C@H](NC(=O)CCCCCCCCCCCCCCCCCCC(=O)O)C(=O)O)C(=O)O)NC(=O)[C@@H](NC(=O)[C@H](CC(=O)O)NC(=O)[C@H](CC(C)C)NC(=O)[C@](C)(Cc1ccccc1)NC(=O)[C@H](CCCCN)NC(=O)[C@H](CO)NC(=O)[C@@H](NC(=O)[C@H](CC(=O)O)NC(=O)[C@H](CO)NC(=O)[C@@H](NC(=O)[C@H](Cc1ccccc1)NC(=O)[C@@H](NC(=O)CNC(=O)[C@H](CCC(N)=O)NC(=O)C(C)(C)NC(=O)[C@@H](N)Cc1c[nH]cn1)[C@@H](C)O)[C@@H](C)O)C(C)C)[C@@H](C)O)C(C)C)C(=O)N[C@@H](CCC(=O)O)C(=O)N[C@@H](C)C(=O)NC(C)(C)C(=O)NCC(=O)O [Peptide 418] (H-H[Aib]QGTFTSDVSK[αMeF]LDTK([AEEA-AEEA-γGlu-γGlu-C20 diacid])RAQDFVAWLEA[Aib]G-OH; N-terminus assumed),9.65,10.06,5.0
CC(C)C[C@H](NC(=O)[C@H](Cc1c[nH]c2ccccc12)NC(=O)[C@H](CCCNC(=N)N)NC(=O)[C@@H](NC(=O)[C@H](Cc1ccccc1)NC(=O)[C@H](CC(=O)O)NC(=O)[C@H](CCC(N)=O)NC(=O)[C@H](C)NC(=O)[C@H](CCCNC(=N)N)NC(=O)[C@H](CCCCNC(=O)COCCOCCNC(=O)COCCOCCNC(=O)CC[C@H](NC(=O)CCCCCCCCCCCCCCCCC(=O)O)C(=O)O)NC(=O)[C@@H](NC(=O)[C@H](CC(=O)O)NC(=O)[C@H](CC(C)C)NC(=O)[C@](C)(Cc1ccccc1)NC(=O)[C@H](CCCCN)NC(=O)[C@H](CO)NC(=O)[C@@H](NC(=O)[C@H](CC(=O)O)NC(=O)[C@H](CO)NC(=O)[C@@H](NC(=O)[C@H](Cc1ccccc1)NC(=O)[C@@H](NC(=O)CNC(=O)[C@H](CCC(N)=O)NC(=O)C(C)(C)NC(=O)[C@@H](N)Cc1c[nH]cn1)[C@@H](C)O)[C@@H](C)O)C(C)C)[C@@H](C)O)C(C)C)C(=O)N[C@@H](CCC(=O)O)C(=O)NC(C)(C)C(=O)N[C@@H](CCC(=O)O)C(=O)O [Peptide 419] (H-H[Aib]QGTFTSDVSK[αMeF]LDTK([AEEA-AEEA-γGlu-C18 diacid])RAQDFVRWLE[Aib]E-OH; N-terminus assumed),9.58,10.01,5.4

# Stronger by pEC50 [1], values ahead:
pEC50 [1],pEC50 [2],% Relative Potency Ratio [2],SMILES
10.78,10.47,1.0,CC(C)C[C@H](NC(=O)[C@H](Cc1c[nH]c2ccccc12)NC(=O)[C@H](C)NC(=O)[C@@H](NC(=O)[C@H](Cc1ccccc1)NC(=O)[C@H](CC(=O)O)NC(=O)[C@H](CCC(N)=O)NC(=O)[C@H](C)NC(=O)[C@H](CCCNC(=N)N)NC(=O)[C@H](CCCCNC(=O)COCCOCCNC(=O)COCCOCCNC(=O)CC[C@H](NC(=O)CC[C@H](NC(=O)CCCCCCCCCCCCCCCCC(=O)O)C(=O)O)C(=O)O)NC(=O)[C@@H](NC(=O)[C@H](CC(=O)O)NC(=O)[C@H](CC(C)C)NC(=O)[C@](C)(Cc1ccccc1)NC(=O)[C@H](CCCCN)NC(=O)[C@H](CO)NC(=O)[C@@H](NC(=O)[C@H](CC(=O)O)NC(=O)[C@H](CO)NC(=O)[C@@H](NC(=O)[C@H](Cc1ccccc1)NC(=O)[C@@H](NC(=O)CNC(=O)[C@H](CCC(N)=O)NC(=O)C(C)(C)NC(=O)[C@@H](N)Cc1c[nH]cn1)[C@@H](C)O)[C@@H](C)O)C(C)C)[C@@H](C)O)C(C)C)C(=O)N[C@@H](CCC(=O)O)C(=O)N[C@@H](C)C(=O)NC(C)(C)C(=O)NCC(=O)O [Peptide 417] (H-H[Aib]QGTFTSDVSK[αMeF]LDTK([AEEA-AEEA-γGlu-γGlu-C18 diacid])RAQDFVAWLEA[Aib]G-OH; N-terminus assumed)
9.75,10.06,4.1,CC(C)C[C@H](NC(=O)[C@H](Cc1c[nH]c2ccccc12)NC(=O)[C@H](CCCNC(=N)N)NC(=O)[C@@H](NC(=O)[C@H](Cc1ccccc1)NC(=O)[C@H](CC(=O)O)NC(=O)[C@H](CCC(N)=O)NC(=O)[C@H](C)NC(=O)[C@H](CCCNC(=N)N)NC(=O)[C@H](CCCCNC(=O)COCCOCCNC(=O)COCCOCCNC(=O)CC[C@H](NC(=O)CCCCCCCCCCCCCCCCC(=O)O)C(=O)O)NC(=O)[C@H](CCCNC(=N)N)NC(=O)[C@H](CC(=O)O)NC(=O)[C@H](CC(C)C)NC(=O)[C@](C)(Cc1ccccc1)NC(=O)[C@H](CCCCN)NC(=O)[C@H](CO)NC(=O)[C@@H](NC(=O)[C@H](CC(=O)O)NC(=O)[C@H](CO)NC(=O)[C@@H](NC(=O)[C@H](Cc1ccccc1)NC(=O)[C@@H](NC(=O)CNC(=O)[C@H](CCC(N)=O)NC(=O)C(C)(C)NC(=O)[C@@H](N)Cc1c[nH]cn1)[C@@H](C)O)[C@@H](C)O)C(C)C)C(C)C)C(=O)N[C@@H](CC(C)C)C(=O)NC(C)(C)C(=O)N[C@H](C(=O)N[C@@H](CCC(=O)O)C(=O)O)[C@@H](C)O [Peptide 421] (H-H[Aib]QGTFTSDVSK[αMeF]LDRK([AEEA-AEEA-γGlu-C18 diacid])RAQDFVRWLL[Aib]TE-OH; N-terminus assumed)
